Assay [1] addresses cortisol synthase (CYP11B1) (Macaca fascicularis, UniProt A0A2K5ULY1). Put plainly: Inhibition of cortisol synthesis, cynomolgus adrenal mitochondria, 11-deoxycortisol as substrate. In kind it is biochemical, cynomolgus monkey. The following applies: 150 units of CYP11B1, 11-deoxycortisol as substrate. As to the method:
The aldosterone synthase and cortisol synthase inhibition assays employ cynomolgus adrenal gland mitochondria as the source of aldosterone synthase (CYP11B2) and cortisol synthase (CYP11B1). Mitochondria are prepared from frozen cynomolgus monkey adrenal glands according to Method A described in by J. D. McGarry et al. (Biochem. J., 1983, 214, 21-28), with a final resuspension in the AT buffer described in R. Yamaguchi et al. (Cell Death and Differentiation, 2007, 14, 616-624), frozen as aliquots in liquid nitrogen and stored at −80° C. until use. One unit of CYP11B2 and CYP11B1 activity in these preparations is defined as the amount of enzyme that generates 1 pmol of product in one hour under the conditions described.
Assays are performed as for aldosterone synthase except for the use of 150 units of CYP11B1, 11-deoxycortisol as substrate and cortisol measured as product.

Assay [2] concerns the target T1, aldosterone synthase (CYP11B2) (Macaca fascicularis, UniProt A0A2K5UPL9).
T1 construct: employ cynomolgus adrenal gland mitochondria as the source of aldosterone synthase (CYP11B2); from tissue; host or cells: cynomolgus monkey adrenal gland mitochondria
T1 sequence (A0A2K5UPL9 1-503): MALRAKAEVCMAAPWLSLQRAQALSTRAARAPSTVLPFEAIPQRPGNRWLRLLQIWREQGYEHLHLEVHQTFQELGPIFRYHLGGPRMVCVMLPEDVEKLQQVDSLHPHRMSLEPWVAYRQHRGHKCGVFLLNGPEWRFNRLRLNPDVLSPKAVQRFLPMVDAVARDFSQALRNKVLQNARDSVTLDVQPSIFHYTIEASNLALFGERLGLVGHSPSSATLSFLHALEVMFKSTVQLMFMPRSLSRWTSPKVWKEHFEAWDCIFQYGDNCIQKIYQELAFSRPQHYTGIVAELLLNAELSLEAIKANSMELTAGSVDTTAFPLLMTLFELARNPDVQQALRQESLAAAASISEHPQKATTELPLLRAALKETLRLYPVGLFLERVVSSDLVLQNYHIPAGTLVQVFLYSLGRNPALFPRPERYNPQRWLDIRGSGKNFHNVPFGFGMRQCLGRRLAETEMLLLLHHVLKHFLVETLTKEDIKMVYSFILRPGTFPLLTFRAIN
Nature of the assay: Inhibition of aldosterone synthase, cynomolgus adrenal mitochondria, aldosterone quantified by mass spectrometry. The format is biochemical, cynomolgus monkey. The following applies: 2 μM corticosterone, 90 minutes at 37° C. As to the method:
The aldosterone synthase and cortisol synthase inhibition assays employ cynomolgus adrenal gland mitochondria as the source of aldosterone synthase (CYP11B2) and cortisol synthase (CYP11B1). […] One unit of CYP11B2 and CYP11B1 activity in these preparations is defined as the amount of enzyme that generates 1 pmol of product in one hour under the conditions described.
The compounds of the invention may be evaluated for aldosterone synthase inhibition by the following assay:
Assays are performed in 96-well format in a final volume of 60 microL/well, containing 100 mM potassium phosphate, pH 7.4, 1% (v/v) DMSO, and additionally, 2 μM of corticosterone and 50 units of CYP11B2 activity. Reactions are started by the addition of NADPH to 1 mM and allowed to proceed for 90 minutes at 37° C. Reactions are terminated by the addition of 60 μL of MeCN containing an internal standard for mass spectrometry. One hundred microliters are then transferred to a glass filter plate and centrifuged at 570×g for 5 minutes and the filtrate is collected. Reaction product aldosterone is quantified by mass spectrometry. To determine the assay blank value (0% activity), NADPH is omitted from some reactions.
Dose dependent inhibition is quantified by the inclusion of compound at various concentrations. Maximum activity (100%) is defined by reactions containing NADPH, but without compound.

Where [3] appears, read: Cortisol Inhibition IC50, cynomolgus adrenal mitochondria.
Where [4] appears, read: cynomolgus adrenal mitochondria, read-out: Cortisol Inhibition IC50.

In general, IC50 refers to the concentration that gives 50% inhibition.

The structures appear in SMILES notation. Like-named read-outs stand apart in the source and are kept apart here.

For `O=C1OCCc2ncn(C3Cc4ccccc4C3)c21` [Compound 25, 3-(2,3-dihydro-1H-inden-2-yl)-3H,4H,6H,7H-pyrano[3,4-d]imidazol-4-one], the IC50 in assay [1] (setting [3]) was greater than 30000 nM; in assay [2], 500 nM.
On the same counts, the results for `N#Cc1ccc(-n2cnc3c2C(=O)OCC3)cc1Cl` [Compound 22, 2-chloro-4-{4-oxo-3H,4H,6H,7H-pyrano[3,4-d]imidazol-3-yl}benzonitrile] are 18000 nM and 25 nM.
As to `CC1Cc2ncn(-c3ccc(Cl)c(Cl)c3)c2C(=O)O1` (stereo not shown) [Compound 41, 3-(3,4-dichlorophenyl)-6-methyl-3H,4H,6H,7H-pyrano[3,4-d]imidazol-4-one], the figures for the IC50 in assay [1] (setting [4]) and in assay [2] were 6000 nM and 8.6 nM, respectively.
For `O=C1OC(CO)Cc2ncn(-c3ccc(Cl)cc3)c21` (stereo not shown) [Compound 36, 3-(4-chlorophenyl)-6-(hydroxymethyl)-3H,4H,6H,7H-pyrano[3,4-d]imidazol-4-one], the IC50 in assay [1] (setting [4]) is greater than 100000 nM; in assay [2] it was 540 nM.
Consider `CC1(CO)Cc2ncn(-c3cccc(Cl)c3F)c2C(=O)O1` (single isomer, unassigned) [Compound 35B, 3-(3-chloro-2-fluorophenyl)-6-(hydroxymethyl)-6-methyl-3H,4H,6H,7H-pyrano[3,4-d]imidazol-4-one], for which the IC50 in assay [1] (setting [4]) was greater than 30000 nM; in assay [2], 620 nM.
Regarding `CC1(C)Cc2ncn(-c3cccc(F)c3Cl)c2C(=O)O1` [Compound 7, 3-(2-chloro-3-fluorophenyl)-6,6-dimethyl-3H,4H,6H,7H-pyrano[3,4-d]imidazol-4-one], the IC50 in assay [1] (setting [4]) came out at 6800 nM; in assay [2], 50 nM.
The corresponding values for `CN1C(=O)CCc2cc(-n3cnc4c3C(=O)OC(C)(CO)C4)ccc21` (single isomer, unassigned) [Compound 40B, 6-[6-(hydroxymethyl)-6-methyl-4-oxo-3H,4H,6H,7H-pyrano[3,4-d]imidazol-3-yl]-1-methyl-1,2,3,4-tetrahydroquinolin-2-one] are greater than 30000 nM and 460 nM.
For `O=C1OCCc2ncn(-c3ccc(Cl)c(Cl)c3)c21` [Compound 23, 3-(3,4-dichlorophenyl)-3H,4H,6H,7H-pyrano[3,4-d]imidazol-4-one], the concentration for half-maximal inhibition (IC50) in assay [1] (setting [4]) turned out to be 10000 nM; in assay [2], 14 nM.
As for `CC1(CO)Cc2ncn(-c3ccc(C#N)cc3)c2C(=O)O1` (stereo not shown) [Compound 37, 4-[6-(hydroxymethyl)-6-methyl-4-oxo-3H,4H,6H,7H-pyrano[3,4-d]imidazol-3-yl]benzonitrile], the IC50 in assay [1] (setting [4]) was determined as 34000 nM; in assay [2] it was 210 nM.
On the same counts, the results for `N#Cc1ccc(-n2cnc3c2C(=O)OCC3)cc1` [Compound 21, 4-{4-oxo-3H,4H,6H,7H-pyrano[3,4-d]imidazol-3-yl}benzonitrile] are 82000 nM and 420 nM.
Consider `O=C1OCCc2ncn(-c3ccc(F)c(F)c3)c21` [Compound 24, 3-(3,4-difluorophenyl)-3H,4H,6H,7H-pyrano[3,4-d]imidazol-4-one], for which the 50% inhibitory concentration (IC50) worked out at 20000 nM in assay [1] (setting [4]) and 440 nM in assay [2].
On the same counts, the results for `CC1(C)Cc2ncn(C3Cc4ccccc4C3)c2C(=O)O1` [Compound 26] are 25000 nM and 64 nM.
Consider `CC1Cc2ncn(-c3ccc(C#N)c(Cl)c3)c2C(=O)O1` (single isomer, unassigned) [Compound 15A, 2-chloro-4-[6-methyl-4-oxo-3H,4H,6H,7H-pyrano[3,4-d]imidazol-3-yl]benzonitrile], for which the results for the IC50 in assay [1] (setting [3]) and in assay [2] were 3400 nM and 7.5 nM, respectively.
For the compound `CC(C)(C)OC(=O)NCC1(C)Cc2ncn(-c3ccc(F)c(F)c3)c2C(=O)O1` (stereo not shown) [Compound 1, tert-butyl N{[3-(3,4-difluorophenyl)-6-methyl-4-oxo-3H,4H,6H,7H-pyrano[3,4-d]imidazol-6-yl]methyl}carbamate], the concentration for half-maximal inhibition (IC50) in assay [1] (setting [4]) is 2300 nM; in assay [2], 55 nM.
With `CC1(CO)Cc2ncn(-c3cccc(F)c3Cl)c2C(=O)O1` (single isomer, unassigned) [Compound 34A, 3-(2-chloro-3-fluorophenyl)-6-(hydroxymethyl)-6-methyl-3H,4H,6H,7H-pyrano[3,4-d]imidazol-4-one], the IC50 in assay [1] (setting [4]) is greater than 30000 nM; in assay [2] it was 870 nM.
On the same counts, the results for `CC1(C)Cc2ncn(-c3ccc(F)cc3)c2C(=O)O1` [Compound 14, 3-(4-fluorophenyl)-6,6-dimethyl-3H,4H,6H,7H-pyrano[3,4-d]imidazol-4-one] are 13000 nM and 130 nM.
The corresponding values for `CC1(C)Cc2ncn(-c3ccccc3)c2C(=O)O1` [Compound 17, 6,6-dimethyl-3-phenyl-3H,4H,6H,7H-pyrano[3,4-d]imidazol-4-one] are 61000 nM and 390 nM.
The corresponding values for `O=C1OCCc2ncn(-c3ccc(Cl)cc3)c21` [Compound 20, 3-(4-chlorophenyl)-3H,4H,6H,7H-pyrano[3,4-d]imidazol-4-one] are 65000 nM and 470 nM.
For the compound `CC1(CO)Cc2ncn(-c3ccc(Cl)cc3)c2C(=O)O1` (single isomer, unassigned) [Compound 38A, 3-(4-chlorophenyl)-6-(hydroxymethyl)-6-methyl-3H,4H,6H,7H-pyrano[3,4-d]imidazol-4-one], the IC50 in assay [1] (setting [4]) stood at 19000 nM; in assay [2], 120 nM.
On to `CC1Cc2ncn(-c3ccc(C#N)c(Cl)c3)c2C(=O)O1` (single isomer, unassigned) [Compound 15B, 2-chloro-4-[6-methyl-4-oxo-3H,4H,6H,7H-pyrano[3,4-d]imidazol-3-yl]benzonitrile], for which the IC50 was found to be 6400 nM in assay [1] (setting [3]) and 12 nM in assay [2].
On the same counts, the results for `COC(=O)C1(C)Cc2ncn(-c3ccc(C#N)c(Cl)c3)c2C(=O)O1` (stereo not shown) [Compound 45, 3-(3-Chloro-4-cyano-phenyl)-6-methyl-4-oxo-3,4,6,7-tetrahydro-pyrano[3,4-d]imidazole-6-carboxylic acid methyl ester] are 1100 nM and 28 nM.
For `CC1(CO)Cc2ncn(C3Cc4ccccc4C3)c2C(=O)O1` (stereo not shown) [Compound 27, 3-(2,3-dihydro-1H-inden-2-yl)-6-(hydroxymethyl)-6-methyl-3H,4H,6H,7H-pyrano[3,4-d]imidazol-4-one], the 50% inhibitory concentration (IC50) in assay [1] (setting [4]) is greater than 30000 nM; in assay [2], 220 nM.
On the same counts, the results for `CC1(CO)Cc2ncn(-c3ccc4c(c3)CCO4)c2C(=O)O1` (single isomer, unassigned) [Compound 42A, 3-(2,3-Dihydro-benzofuran-5-yl)-6-hydroxymethyl-6-methyl-6,7-dihydro-3H-pyrano[3,4-d]imidazol-4-one] are greater than 30000 nM and 210 nM.
For the compound `CN(C)C(=O)C1(C)Cc2ncn(-c3ccc(C#N)c(Cl)c3)c2C(=O)O1` (stereo not shown) [Compound 46, 3-(3-chloro-4-cyano-phenyl)-6-methyl-4-oxo-3,4,6,7-tetrahydro-pyrano[3,4-d]imidazole-6-carboxylic acid dimethylamide], the IC50 in assay [1] (setting [3]) turned out to be 13000 nM; in assay [2], 89 nM.
As for `CN1C(=O)CCc2cc(-n3cnc4c3C(=O)OC(C)(CO)C4)ccc21` (single isomer, unassigned) [Compound 40A, 6-[6-(hydroxymethyl)-6-methyl-4-oxo-3H,4H,6H,7H-pyrano[3,4-d]imidazol-3-yl]-1-methyl-1,2,3,4-tetrahydroquinolin-2-one], the IC50 in assay [1] (setting [4]) was greater than 30000 nM; in assay [2], 160 nM.
The corresponding values for `CC1(C)Cc2ncn(-c3ccc(Cl)c(C#N)c3)c2C(=O)O1` [Compound 12, 2-chloro-5-{6,6-dimethyl-4-oxo-3H,4H,6H,7H-pyrano[3,4-d]imidazol-3-yl}benzonitrile] are 24000 nM and 290 nM.
